We go through two compounds from ChEMBL document CHEMBL1909046, “DrugMatrix in vitro pharmacology data”.

Adenosine receptor A2a, sequence (P29274 whole entry): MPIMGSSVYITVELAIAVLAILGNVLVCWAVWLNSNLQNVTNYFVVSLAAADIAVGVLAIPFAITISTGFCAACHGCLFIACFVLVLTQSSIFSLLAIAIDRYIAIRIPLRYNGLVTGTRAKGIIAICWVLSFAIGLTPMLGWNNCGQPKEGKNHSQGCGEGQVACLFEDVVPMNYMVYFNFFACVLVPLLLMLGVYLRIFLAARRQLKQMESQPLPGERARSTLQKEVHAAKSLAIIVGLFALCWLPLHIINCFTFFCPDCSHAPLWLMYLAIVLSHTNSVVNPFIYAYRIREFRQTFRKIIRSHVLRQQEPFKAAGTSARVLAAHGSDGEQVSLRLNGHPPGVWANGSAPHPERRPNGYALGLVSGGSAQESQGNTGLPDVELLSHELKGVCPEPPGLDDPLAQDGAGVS

One assay deals with Mitogen-activated protein kinase 3 (Homo sapiens, UniProt P27361). In words: DRUGMATRIX: Protein Serine/Threonine Kinase, ERK1 enzyme inhibition (substrate: Myelin Basic Protein). Also noted: species or system Escherichia coli. As to conditions: Not Active = under 50% inhibition at 10 µM.
Mitogen-activated protein kinase 3, sequence (P27361 whole entry): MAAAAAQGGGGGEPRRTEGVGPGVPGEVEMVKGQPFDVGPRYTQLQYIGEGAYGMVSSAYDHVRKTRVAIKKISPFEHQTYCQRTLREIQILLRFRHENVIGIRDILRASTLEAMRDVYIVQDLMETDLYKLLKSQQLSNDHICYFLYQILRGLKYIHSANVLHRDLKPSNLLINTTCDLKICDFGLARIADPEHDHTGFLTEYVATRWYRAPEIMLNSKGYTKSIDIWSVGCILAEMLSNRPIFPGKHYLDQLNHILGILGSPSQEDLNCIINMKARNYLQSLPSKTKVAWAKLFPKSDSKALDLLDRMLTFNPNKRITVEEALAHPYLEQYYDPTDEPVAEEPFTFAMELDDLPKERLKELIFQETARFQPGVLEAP
As for `CC(C)(C)NCC(O)c1ccc(O)c(CO)c1` (centres undefined) [ALBUTEROL], the IC50 entry is “Not Active”.
Same read-out and setting: next, `CC1(C)[C@H]2CC[C@]1(C)C(=O)C2` [(-)-CAMPHOR]: “Not Active”.

The next assay has as its target T1, C-X-C chemokine receptor type 1 (Homo sapiens, UniProt P25024). Further: in other assays of this panel Not Active means under 50% inhibition at 10 µM.
T1 sequence (P25024 whole entry): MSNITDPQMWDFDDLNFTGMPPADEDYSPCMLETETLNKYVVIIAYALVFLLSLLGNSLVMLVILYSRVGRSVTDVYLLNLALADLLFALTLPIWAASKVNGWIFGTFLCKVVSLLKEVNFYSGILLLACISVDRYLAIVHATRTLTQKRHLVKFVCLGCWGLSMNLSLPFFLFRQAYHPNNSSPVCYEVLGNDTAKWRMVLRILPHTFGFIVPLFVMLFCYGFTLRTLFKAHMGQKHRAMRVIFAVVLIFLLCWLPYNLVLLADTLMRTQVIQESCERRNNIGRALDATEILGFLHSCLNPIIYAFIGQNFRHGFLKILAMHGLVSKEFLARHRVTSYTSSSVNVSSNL
Conditions: not given
`CC(C)(C)NCC(O)c1ccc(O)c(CO)c1` (centres undefined) [ALBUTEROL]: the IC50 entry is “Not Active”.
`CC1(C)[C@H]2CC[C@]1(C)C(=O)C2` [(-)-CAMPHOR]: the IC50 result is “Not Active”.

Test system in another assay: not listed separately
Briefly: DRUGMATRIX: Platelet-Derived Growth Factor (PDGF) radioligand binding (ligand: [125I] PDGF). The format is cell-based. Conditions: nih3t3; Not Active = under 50% inhibition at 10 µM.
Turning to `CC(C)(C)NCC(O)c1ccc(O)c(CO)c1` (centres undefined) [ALBUTEROL], the IC50 result was “Not Active” and the Ki entry was “Not Active”.
As to `CC1(C)[C@H]2CC[C@]1(C)C(=O)C2` [(-)-CAMPHOR], the IC50 result is given as “Not Active” and the Ki entry is recorded as “Not Active”.

Test system in a further assay: not listed separately
In words: DRUGMATRIX: GABAA, Chloride Channel, TBOB radioligand binding (ligand: [3H] TBOB). The format is cell membranes, Rattus norvegicus, Wistar, Cerebral cortex, Membrane. As to conditions: Not Active = under 50% inhibition at 10 µM.
As for `CC(C)(C)NCC(O)c1ccc(O)c(CO)c1` (centres undefined) [ALBUTEROL], the IC50 result was “Not Active” and the Ki entry is recorded as “Not Active”.
Consider `CC1(C)[C@H]2CC[C@]1(C)C(=O)C2` [(-)-CAMPHOR], for which the IC50 entry was “Not Active” and the Ki entry was “Not Active”.

In a further assay the target is T2, B2 bradykinin receptor (Homo sapiens, UniProt P30411). Further: in other assays of this panel Not Active means under 50% inhibition at 10 µM.
T2 sequence (P30411 whole entry): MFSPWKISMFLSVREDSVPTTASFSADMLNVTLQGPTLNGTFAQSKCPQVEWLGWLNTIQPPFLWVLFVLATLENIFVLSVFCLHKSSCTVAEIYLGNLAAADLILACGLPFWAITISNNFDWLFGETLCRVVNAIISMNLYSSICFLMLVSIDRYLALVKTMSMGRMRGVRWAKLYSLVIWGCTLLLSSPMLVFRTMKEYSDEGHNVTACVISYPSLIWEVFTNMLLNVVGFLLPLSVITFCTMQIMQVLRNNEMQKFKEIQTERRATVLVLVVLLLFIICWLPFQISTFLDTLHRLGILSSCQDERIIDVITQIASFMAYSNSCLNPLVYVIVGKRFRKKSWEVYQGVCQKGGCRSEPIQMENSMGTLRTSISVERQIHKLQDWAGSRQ
The format is cell membranes, Membrane. Conditions: chem-1.
For the compound `CC(C)(C)NCC(O)c1ccc(O)c(CO)c1` (centres undefined) [ALBUTEROL], the IC50 entry was “Not Active”.
For the compound `CC1(C)[C@H]2CC[C@]1(C)C(=O)C2` [(-)-CAMPHOR], the IC50 result is reported as “Not Active”.

The next assay concerns the target T3, Alpha-2C adrenergic receptor (Homo sapiens, UniProt P18825).
T3 sequence (P18825 whole entry): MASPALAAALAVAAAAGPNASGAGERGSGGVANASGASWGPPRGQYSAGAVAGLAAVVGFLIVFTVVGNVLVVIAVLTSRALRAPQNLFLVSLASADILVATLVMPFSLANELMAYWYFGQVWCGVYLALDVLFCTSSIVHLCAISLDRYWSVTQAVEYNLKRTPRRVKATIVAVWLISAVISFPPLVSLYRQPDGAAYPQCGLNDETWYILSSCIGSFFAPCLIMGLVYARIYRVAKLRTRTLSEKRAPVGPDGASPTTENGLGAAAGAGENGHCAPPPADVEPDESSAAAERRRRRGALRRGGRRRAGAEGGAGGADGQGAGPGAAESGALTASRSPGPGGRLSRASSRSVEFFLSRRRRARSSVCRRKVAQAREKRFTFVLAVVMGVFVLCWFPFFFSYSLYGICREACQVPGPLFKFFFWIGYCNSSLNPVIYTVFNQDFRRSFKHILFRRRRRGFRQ
In words: DRUGMATRIX: Adrenergic Alpha-2C radioligand binding (ligand: [3H] MK-912). The assay is classed as cell membranes, Sf9, Membrane. As to conditions: sf9.
As for `CC(C)(C)NCC(O)c1ccc(O)c(CO)c1` (centres undefined) [ALBUTEROL], the IC50 entry is “Not Active”.
Turning to `CC1(C)[C@H]2CC[C@]1(C)C(=O)C2` [(-)-CAMPHOR], the IC50 entry is reported as “Not Active”.

The target of another assay is Cannabinoid receptor 1 (Homo sapiens, UniProt P21554). The format is cell membranes, Membrane. Conditions: chem-1. Further: in other assays of this panel Not Active means under 50% inhibition at 10 µM.
Cannabinoid receptor 1, sequence (P21554 whole entry): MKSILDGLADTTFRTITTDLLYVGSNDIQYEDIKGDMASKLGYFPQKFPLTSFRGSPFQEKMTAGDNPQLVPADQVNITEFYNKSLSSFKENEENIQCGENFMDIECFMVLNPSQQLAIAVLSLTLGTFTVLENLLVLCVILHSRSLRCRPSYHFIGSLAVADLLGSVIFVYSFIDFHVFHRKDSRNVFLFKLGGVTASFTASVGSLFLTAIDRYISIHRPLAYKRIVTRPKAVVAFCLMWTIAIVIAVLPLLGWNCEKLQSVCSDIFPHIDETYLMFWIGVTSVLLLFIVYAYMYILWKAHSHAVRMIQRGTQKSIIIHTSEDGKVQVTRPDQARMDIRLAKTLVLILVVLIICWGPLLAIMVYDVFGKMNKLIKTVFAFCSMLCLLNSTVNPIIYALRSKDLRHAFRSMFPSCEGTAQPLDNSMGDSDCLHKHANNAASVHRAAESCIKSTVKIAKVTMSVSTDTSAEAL
`CC(C)(C)NCC(O)c1ccc(O)c(CO)c1` (centres undefined) [ALBUTEROL]: the IC50 result is given as “Not Active”.
Turning to `CC1(C)[C@H]2CC[C@]1(C)C(=O)C2` [(-)-CAMPHOR], the IC50 entry was “Not Active”.

The target in a further assay is cGMP-specific 3',5'-cyclic phosphodiesterase (Homo sapiens, UniProt O76074). In words: DRUGMATRIX: Phosphodiesterase PDE5 enzyme inhibition (substrate: [3H]cGMP + cGMP). The assay is classed as tissue-based, Platelet. Conditions: platelet; Not Active = under 50% inhibition at 10 µM.
As to `CC(C)(C)NCC(O)c1ccc(O)c(CO)c1` (centres undefined) [ALBUTEROL], the IC50 result is listed as “Not Active”.
Same read-out and setting: then `CC1(C)[C@H]2CC[C@]1(C)C(=O)C2` [(-)-CAMPHOR], with “Not Active”.

In the next assay the target is Nitric oxide synthase 1 (Rattus norvegicus, UniProt P29476). The format is tissue-based, Cerebellum. Further: in other assays of this panel Not Active means under 50% inhibition at 10 µM.
Nitric oxide synthase 1, sequence (P29476 whole entry): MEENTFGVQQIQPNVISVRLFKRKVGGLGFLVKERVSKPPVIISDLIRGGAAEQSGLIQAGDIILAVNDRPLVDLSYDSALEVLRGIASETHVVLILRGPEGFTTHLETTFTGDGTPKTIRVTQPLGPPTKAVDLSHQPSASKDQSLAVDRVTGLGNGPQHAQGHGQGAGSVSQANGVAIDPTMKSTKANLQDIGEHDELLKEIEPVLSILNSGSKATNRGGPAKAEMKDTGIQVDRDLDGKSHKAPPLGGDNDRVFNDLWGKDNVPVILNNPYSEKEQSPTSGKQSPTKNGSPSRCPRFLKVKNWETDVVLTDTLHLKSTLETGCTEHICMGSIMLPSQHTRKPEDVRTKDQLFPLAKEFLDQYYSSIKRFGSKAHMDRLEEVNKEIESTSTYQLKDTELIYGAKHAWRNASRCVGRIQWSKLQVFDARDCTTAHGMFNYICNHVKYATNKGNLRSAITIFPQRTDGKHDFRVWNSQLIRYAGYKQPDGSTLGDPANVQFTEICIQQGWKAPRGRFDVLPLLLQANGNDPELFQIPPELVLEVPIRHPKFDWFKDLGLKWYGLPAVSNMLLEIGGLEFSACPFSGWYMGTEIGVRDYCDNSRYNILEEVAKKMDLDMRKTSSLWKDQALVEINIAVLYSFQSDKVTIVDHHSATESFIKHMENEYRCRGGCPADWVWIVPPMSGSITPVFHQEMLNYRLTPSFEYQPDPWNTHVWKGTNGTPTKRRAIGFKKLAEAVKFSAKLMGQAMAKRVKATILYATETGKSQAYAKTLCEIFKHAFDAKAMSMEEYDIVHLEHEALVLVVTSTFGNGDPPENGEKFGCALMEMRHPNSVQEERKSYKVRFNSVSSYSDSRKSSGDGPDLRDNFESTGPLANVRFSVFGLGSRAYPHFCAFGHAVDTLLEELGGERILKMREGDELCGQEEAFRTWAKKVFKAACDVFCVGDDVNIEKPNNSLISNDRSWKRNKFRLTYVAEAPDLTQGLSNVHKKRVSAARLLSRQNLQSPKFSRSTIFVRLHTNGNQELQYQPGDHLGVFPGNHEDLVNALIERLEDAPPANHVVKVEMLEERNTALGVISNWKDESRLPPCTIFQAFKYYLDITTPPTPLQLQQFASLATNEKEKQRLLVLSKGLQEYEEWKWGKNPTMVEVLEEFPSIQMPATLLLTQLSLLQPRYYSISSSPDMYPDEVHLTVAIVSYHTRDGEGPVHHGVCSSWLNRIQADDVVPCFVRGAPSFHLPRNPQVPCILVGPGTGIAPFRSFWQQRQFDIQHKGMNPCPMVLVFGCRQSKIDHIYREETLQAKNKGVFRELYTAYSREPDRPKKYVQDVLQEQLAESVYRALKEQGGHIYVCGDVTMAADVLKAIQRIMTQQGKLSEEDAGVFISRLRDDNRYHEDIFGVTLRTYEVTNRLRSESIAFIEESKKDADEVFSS
Conditions: not given
As for `CC(C)(C)NCC(O)c1ccc(O)c(CO)c1` (centres undefined) [ALBUTEROL], the IC50 result was “Not Active”.
Regarding `CC1(C)[C@H]2CC[C@]1(C)C(=O)C2` [(-)-CAMPHOR], the IC50 entry is given as “Not Active”.

Test system in the next assay: not listed separately
In words: DRUGMATRIX: Potassium Channel [KATP] radioligand binding (ligand: [3H] Glyburide). The assay is classed as cell membranes, Membrane. As to conditions: hit-t15; Not Active = under 50% inhibition at 10 µM.
Take `CC(C)(C)NCC(O)c1ccc(O)c(CO)c1` (centres undefined) [ALBUTEROL]: the IC50 entry is on record as “Not Active” and the Ki entry is given as “Not Active”.
As to `CC1(C)[C@H]2CC[C@]1(C)C(=O)C2` [(-)-CAMPHOR], the IC50 result is on record as “Not Active” and the Ki entry is “Not Active”.

For a further assay, the target named is Acetylcholinesterase (Homo sapiens, UniProt P22303). In words: DRUGMATRIX: Acetylcholinesterase enzyme inhibition (substrate: acetylthiocholine). The format is cell-based, HEK293. As to conditions: hek293; Not Active = under 50% inhibition at 10 µM.
Acetylcholinesterase, sequence (P22303 whole entry): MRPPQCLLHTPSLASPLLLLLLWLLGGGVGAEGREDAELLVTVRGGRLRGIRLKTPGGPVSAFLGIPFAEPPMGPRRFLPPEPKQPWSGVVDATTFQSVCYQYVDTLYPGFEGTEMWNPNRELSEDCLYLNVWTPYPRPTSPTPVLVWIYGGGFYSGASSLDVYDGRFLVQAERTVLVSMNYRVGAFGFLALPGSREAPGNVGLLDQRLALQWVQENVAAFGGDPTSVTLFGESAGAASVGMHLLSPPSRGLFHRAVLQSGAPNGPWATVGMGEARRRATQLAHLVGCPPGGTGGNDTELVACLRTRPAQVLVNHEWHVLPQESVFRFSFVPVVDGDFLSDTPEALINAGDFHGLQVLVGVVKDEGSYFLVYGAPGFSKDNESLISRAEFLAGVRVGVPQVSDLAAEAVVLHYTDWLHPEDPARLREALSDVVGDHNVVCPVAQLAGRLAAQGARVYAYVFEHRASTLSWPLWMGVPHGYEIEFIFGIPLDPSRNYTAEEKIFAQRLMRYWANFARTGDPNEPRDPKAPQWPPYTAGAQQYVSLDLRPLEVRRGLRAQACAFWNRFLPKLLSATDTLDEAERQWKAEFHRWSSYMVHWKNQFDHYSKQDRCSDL
For the compound `CC(C)(C)NCC(O)c1ccc(O)c(CO)c1` (centres undefined) [ALBUTEROL], the IC50 entry is “Not Active”.
For `CC1(C)[C@H]2CC[C@]1(C)C(=O)C2` [(-)-CAMPHOR], the IC50 result was “Not Active”.

In the next assay the target is T4, Substance-K receptor (Homo sapiens, UniProt P21452). Further: in other assays of this panel Not Active means under 50% inhibition at 10 µM.
T4 sequence (P21452 whole entry): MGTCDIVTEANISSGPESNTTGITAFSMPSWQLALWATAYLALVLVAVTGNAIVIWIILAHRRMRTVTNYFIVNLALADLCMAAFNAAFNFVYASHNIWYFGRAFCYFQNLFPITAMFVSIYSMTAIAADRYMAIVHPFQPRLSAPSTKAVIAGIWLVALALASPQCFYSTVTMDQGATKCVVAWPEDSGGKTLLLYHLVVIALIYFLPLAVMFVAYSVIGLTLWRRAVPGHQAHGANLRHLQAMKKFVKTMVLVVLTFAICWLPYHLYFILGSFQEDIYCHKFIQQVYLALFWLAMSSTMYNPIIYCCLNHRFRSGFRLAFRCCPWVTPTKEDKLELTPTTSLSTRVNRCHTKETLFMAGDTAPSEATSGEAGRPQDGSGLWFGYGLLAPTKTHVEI
The assay is classed as cell membranes, CHO, Membrane. Conditions: cho.
In the case of `CC(C)(C)NCC(O)c1ccc(O)c(CO)c1` (centres undefined) [ALBUTEROL], the IC50 entry is recorded as “Not Active”.
Turning to `CC1(C)[C@H]2CC[C@]1(C)C(=O)C2` [(-)-CAMPHOR], the IC50 result is “Not Active”.

A further assay addresses Adenosine receptor A2a (Homo sapiens, UniProt P29274). Briefly: DRUGMATRIX: Adenosine A2A radioligand binding (ligand: […]). The assay is classed as cell membranes, HEK293, Membrane. As to conditions: hek293; Not Active = under 50% inhibition at 10 µM.
`CC(C)(C)NCC(O)c1ccc(O)c(CO)c1` (centres undefined) [ALBUTEROL]: the IC50 entry is on record as “Not Active”.
As for `CC1(C)[C@H]2CC[C@]1(C)C(=O)C2` [(-)-CAMPHOR], the IC50 result is “Not Active”.

Another assay has as its target Protein phosphatase 3 catalytic subunit alpha (Homo sapiens, UniProt Q08209). Details: species or system Escherichia coli.
Conditions: not given
Turning to `CC(C)(C)NCC(O)c1ccc(O)c(CO)c1` (centres undefined) [ALBUTEROL], the IC50 result is on record as “Not Active”.
As for `CC1(C)[C@H]2CC[C@]1(C)C(=O)C2` [(-)-CAMPHOR], the IC50 entry is recorded as “Not Active”.
